Measured values from patent US20100227806A1, “Use Of A Ghrelin Agonist To Improve Catabolic Effects Of Glucocorticoid Treatment” (priority 2006, published 2010).

Tests used:
[1] = Effects of pharmacological treatments on plasma hormones and glucose concentrations; type: in vivo, Sprague-Dawley rats; details: day 47, mean ± SEM of eight animals; for Glucose: at sacrifice; for Corticosterone / IGF-1 / Insulin: plasma at sacrifice
Description: (§1) Thirty-two prepubertal male Sprague-Dawley rats approximately 21 days old and weighing between 45 and 55 grams, were obtained from Harlan, Italy (S. Pietro al Natisone, ITALY). During the study, the animals were maintained in accordance with the guidelines of the Italian Ministry of Health for the care and use of laboratory animals (Decreto legge 116/92). The animals were randomly divided into two treatment groups and kept in a controlled environment at a constant temperature of 21-23° C. with 12:12 light/dark exposure continuous period wherein the light exposure began at approximately 8:00 am and ended at approximately 8:00 pm. The animals were provided with water and food ad libitum consisting of an approximate 3200 calories/kg daily diet of standard pellet chow provided by Piccioni, Gessate-Milano, Italy (containing at least 19% protein, 3% fat and 56% carbohydrate).
(§2) Beginning on the 23rd day (i.e., the animals were 23 days old), 16 of the study animals were treated intraperitoneally (Ip) daily with 40 μg/kg of either saline or dexamethasone sodium phosphate (sold under the trademark Decadron® by Merck Pharmaceuticals, West Point, Pa.). Beginning on the 30th day (i.e., the animals were 30 days old), the subgroup of 16 studied animals was further divided into groups of 8 and treated subcutaneously three times daily (at approximately 9:00 am, 1:00 pm and 5:00 pm) with either 80 nmoles/kg of the preferred ghrelin analog [Aib^2, Glu^3(NH-hexyl)]hGhrelin(1-28)-NH2 (IPSEN, Milford, Mass.) dissolved in a sterile saline solution with 0.25% bovine serum albumin or vehicle (the saline-bovine serum albumin solution alone). This regimen continued for 24 days during which time the studied animals were weighed two times per week. At irregular intervals, the cumulative food intake for a 24-hour period of time was measured. Beginning on the 46th day (i.e., the animals were 46 days old), the length of the test and control animals from nose to anus was measured (hereinafter referred to as “the nose-anal length”). On the 47th day (i.e., the animals were 47 days old), all food was denied to the test subjects commencing at 8:00 am. Small samples of blood were taken via percutaneous puncture of the tail to assess blood glucose levels during the treatment period.
(§3) The test animals received two intravenous administrations of [Aib^2, Glu^3(NH-hexyl)]hGhrelin(1-28)-NH2 at approximately 9:00 am and 1:00 pm. The studied animals were sacrificed by rapid decapitation at approximately 2:00 pm, trunk blood collected for hormone level determinations, and the epididymal fat pads removed and weighed.
Samples of trunk blood were taken from the test subjects via […]. The blood samples were collected in tubes containing EDTA, separated by centrifugation, and stored at −20° C. Plasma insulin, IGF-1, and corticosterone levels were all measured using commercial RIA kits (Insulin and Corticosterone kits were both obtained from ICN-Biomedicals, Asse-Relegem, BELGIUM and the rIGF-1 test kit was obtained from Mediagnostic GMbH, Tubingen, GERMANY). Glucose concentration was determined using the Glucotrend® Soft Test System blood glucose meter (Roche Diagnostics, Barcelona, SPAIN).
(§4) Unless otherwise stated, the results reported in FIGS. 3-6 are expressed as the mean±SEM of eight replicate test subjects. Data was analyzed for statistical significance by one-way ANOVA which determines the variation (variance) within the groups and how that variation translates into variation (i.e. differences) between the groups, taking into account how many subjects there are in each group. […] The linear correlation analysis was performed either by Pearson's parametric test or by Spearman's nonparametric test. A P value below 0.05 was considered significant.

[2] = Effects of pharmacological treatments on growth parameters in dexamethasone-treated young rats; type: in vivo, Sprague-Dawley rats; details: for Final Body Weight: prepubertal male rats, dexamethasone 40 μg/kg ip daily from day 23, A 80 nmoles/kg sc three times daily from day 30; for Final Body Weight / Final Nose-Anal Length / Lee Obesity Index / Growth Rate / Epididymal Fat Pads: mean ± SEM of eight animals; for Final Nose-Anal Length / Lee Obesity Index / Growth Rate / Epididymal Fat Pads: same regimen; for Growth Rate: slope of growth curve; for Epididymal Fat Pads: weight at sacrifice
Description: as §1, §2, §3, §4

[3] = rat; cited from earlier work
[4] = 24-h food intake and food efficiency in treated young rats; type: in vivo, Sprague-Dawley rats
Text: FIG. 4. Panel A: the effect of the different pharmacological treatment on 24-h food intake expressed as a percent of the control value. Data represented the mean±SEM of nine determinations performed at irregular intervals from day 33 to day 47 after birth. Panel B: the effect of the different pharmacological treatments on food efficacy calculated as a ratio between food intake (g) and […] measured over the same time interval at different stages of growth. Data represents the meant SEM of eight rats. *P<0.05; **<0.01 vs SAL-treated rats (Dunnett's test). Panel C: the effect of the different pharmacological treatments on the cumulative food intake measured over the indicated time intervals at different stages of growth.
Beginning on the 23rd day (i.e., the animals were 23 days old), 16 of the study animals were treated intraperitoneally (Ip) daily with 40 μg/kg of either saline or dexamethasone sodium phosphate (sold under the trademark Decadron® by Merck Pharmaceuticals, West Point, Pa.). Beginning on the 30th day (i.e., the animals were 30 days old), the subgroup of 16 studied animals was further divided into groups of 8 and treated subcutaneously three times daily (at approximately 9:00 am, 1:00 pm and 5:00 pm) with either 80 nmoles/kg of the preferred ghrelin analog [Aib^2, Glu^3(NH-hexyl)]hGhrelin(1-28)-NH2 (IPSEN, Milford, Mass.) dissolved in a sterile saline solution with 0.25% bovine serum albumin or vehicle (the saline-bovine serum albumin solution alone). This regimen continued for 24 days during which time the studied animals were weighed two times per week. At irregular intervals, the cumulative food intake for a 24-hour period of time was measured. Beginning on the 46th day (i.e., the animals were 46 days old), the length of the test and control animals from nose to anus was measured (hereinafter referred to as “the nose-anal length”). […]
Food efficiency was calculated as the ratio between body weight gain (in grams) and food intake (in grams) measured over the same time interval.

Compound | Glucose [1] [mg/dL] | Corticosterone [1] [ng/mL] | IGF-1 [1] [ng/mL] | Insulin [1] [μIU/ml] | Final Body Weight [2] [g] | Final Nose-Anal Length [2] [cm] | Lee Obesity Index [2] | Growth Rate [2] [g/day] | Epididymal Fat Pads [2] [g] | glucocorticoid-mediated GH-inhibition [3] | food efficiency (ratio body weight gain / food intake) vs saline treatment ([4]; FIG. 4B, two out of three determinations) | cumulative 24-hour food intake vs saline-treated animals ([4]; after 10 days from beginning of dexamethasone treatment, FIG. 4A) | decrease of food efficiency induced by dexamethasone ([4]; co-administration with dexamethasone, FIG. 4B) | growth suppression induced by DEX ([2]; concomitant treatment with DEX, FIG. 3) | somatic growth as compared to SAL-treated rats ([2]; young male rats, FIG. 3, Dunnett's t test)
C[C@@H]1C[C@H]2[C@@H]3CCC4=CC(=O)C=C[C@]4(C)[C@@]3(F)[C@@H](O)C[C@]2(C)[C@@]1(O)C(=O)CO [Dexamethasone, 9-fluoro-11β,17,21-trihydroxy-16a-methylpregna-1,4-diene-3,20-dione, reference compound] | 107 ± 6 | 19 ± 2 | 1257 ± 112 | 50 ± 6 | 185.2 ± 4.2 | 17.8 ± 0.2 | 321 ± 1.6 | 5.6 ± 0.2 | 1.14 ± 0.06 | – | – | – | – | – | –
GHRP-6 | – | – | – | – | – | – | – | – | – | able to completely counteract | – | – | – | – | –
[Aib^2, Glu^3(NH-hexyl)]hGhrelin(1-28)-NH2 | 122 ± 3 | 235 ± 23 | 1653 ± 87 | 40.4 ± 5.7 | 230.8 ± 4.8 | 19.3 ± 0.1 | 318 ± 1.4 | 7.6 ± 0.3 | 1.31 ± 0.07 | – | increased | increased | able to reverse | reversed | significantly increased
